Experimental data published in paper PMC8373063 (2021).

Legend:
[1] = tested on: RNA Seq4 (RNA, single strand) AAGAAGGAAGGUGC; assay: fluorescence polarization; settings: 100 mM NaCl; 20 mM HEPES, 25 °C, 0.5 μM compound
[2] = tested on: DNA Seq6 (DNA, single strand) TGAAGGAAGGT; assay: fluorescence polarization; settings: 100 mM NaCl, 1 mM MgCl2; 20 mM HEPES, 25 °C, 0.5 μM compound
[3] = tested on: RNA Seq6 (RNA, single strand) UGAAGGAAGGU; assay: fluorescence polarization; settings: 100 mM NaCl; 20 mM HEPES, 25 °C, 0.5 μM compound
[4] = tested on: DNA Seq6 (DNA, single strand) TGAAGGAAGGT; assay: fluorescence polarization; settings: 100 mM NaCl, 1 mM MgCl2; 20 mM HEPES, 25 °C, 0.5 μM compound; remark: listed apart in the source
[5] = tested on: RNA Seq6 (RNA, single strand) UGAAGGAAGGU; assay: fluorescence polarization; settings: 100 mM NaCl; 20 mM HEPES, 25 °C, 0.5 μM compound; remark: listed apart in the source
[6] = tested on: RNA Seq4 (immobilised) (RNA, single strand) AAGAAGGAAGGUGC; assay: SPR, immobilised RNA; settings: running buffer not shown; SMN-C5 up to 40 μM
[7] = tested on: DNA Seq6 (DNA, single strand) TGAAGGAAGGT; assay: competitive fluorescence polarization; settings: 100 mM NaCl, 1 mM MgCl2, 20 mM HEPES, tracer 0.5 μM SMN-C2 displaced from 25 μM DNA Seq6

Compound | Kd [4] | Kd [5] | other results
Cc1cn2cc(-c3cc4ccc(N5CCN[C@@H](C)C5)cc4oc3=O)nc2c(C)n1 |  |  | Kd [1]: 25.4 ± 7.3 µM; Kd [2]: 2.9 ± 0.3 µM; Kd [3]: 18.5 ± 5.4 µM
CN1CCN(c2cc(F)c3cc(-c4ccc(Cl)cc4)c(=O)oc3c2)CC1 | 9.9 ± 0.9 µM | 30.9 ± 6.7 µM | 
Cc1c(-c2cccc(Cl)c2)c(=O)oc2cc(N3CCN(C)CC3)ccc12 | > >100 μM | > >100 μM | 
CN1CCN(c2ccc3cc(-c4cccc(Cl)c4)c(=O)oc3c2)CC1 | 13.9 ± 1.1 µM | 35.9 ± 14.8 µM | 
COc1cn2cc(-c3cc4ccc(N5CCNCC5)cc4oc3=O)nc2cn1 |  | 11.4 ± 0.7 µM | Kd [2]: 1.4 ± 0.2 µM
CN1CCN(c2ccc3cc(-c4ccc(Cl)cc4)c(=O)oc3c2)CC1 | 8.2 ± 0.7 µM | 30.6 ± 12.3 µM | 
O=c1oc2cc(N3CCNCC3)ccc2cc1-c1cn2ccccc2n1 | 2.8 ± 0.5 µM | 14.5 ± 2.3 µM | 
Cc1cn2cc(-c3cc(=O)n4cc(N5CCN(C)CC5)ccc4n3)cc(F)c2n1 |  |  | Kd [6]: 8.0 µM; apparent Kd [7]: 5.8 ± 2.5 µM
CN1CCN(c2cc(F)c3cc(-c4cccc(Cl)c4)c(=O)oc3c2)CC1 | 18.7 ± 4.0 µM | 32.8 ± 5.6 µM | 
Cc1cn2cc(-c3cc4ccc(N5CCN(CCNC(=O)OC(C)(C)C)[C@@H](C)C5)cc4oc3=O)nc2c(C)n1 | 4.0 ± 0.3 µM | 51.2 ± 4.9 µM | Kd [1]: 37.5 ± 14.0 µM
CN1CCN(c2ccc3cc(-c4ccccc4Cl)c(=O)oc3c2)CC1 |  | > >100 μM | Kd [2]: > 100 µM
Cc1c(-c2ccc(Cl)cc2)c(=O)oc2cc(N3CCN(C)CC3)ccc12 | > >100 μM | > >100 μM | 
